ChEMBL document CHEMBL1201862, “PubChem BioAssay data set” (2004)
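Protocol summary: plate cells (96-well), add compound at 5 concentrations, incubate 48 h, interpolate endpoints linearly. GI50 marks 50% less growth.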 Active and inactive are the calls of the source. Rule as the data show it: active = GI50 up to about 1.1 µM and inactive = higher.

Key:
Test in all cases: NCI tumour cell line growth inhibition, 48 h
[1] = test system: COLO 205
[2] = test system: EKVX
[3] = test system: HCC 2998
[4] = test system: HL-60
[5] = test system: HOP-18
[6] = test system: KM12
[7] = test system: M14
[8] = test system: Malme-3M
[9] = test system: NCI-H226
[10] = test system: NCI-H460
[11] = test system: OVCAR-3
[12] = test system: OVCAR-4
[13] = test system: OVCAR-5
[14] = test system: SK-MEL-2
[15] = test system: SK-MEL-5
[16] = test system: SR
[17] = test system: SW-620
[18] = test system: DU-145
[19] = test system: MCF7
[20] = test system: PC-3

Measured: GI50

CC1CCP(=O)(c2ccccc2)c2ccccc21 (configuration not stated)
inactive: [1] 51.8 µM | [2] > 100 µM | [3] 38.8 µM | [4] 19.6 µM | [5] > 100 µM | [6] > 100 µM | [7] > 100 µM | [8] > 100 µM | [9] > 100 µM | [10] 40.8 µM | [11] 76.2 µM | [12] 38.5 µM | [13] > 100 µM | [14] > 100 µM | [15] 49.5 µM | [16] 32.4 µM | [17] > 10 µM

COC(=O)C1=C(C(=O)OC)SC(=CC#CC=C2SC(C(=O)OC)=C(C(=O)OC)S2)S1
inactive: [1] 11.7 µM | [2] 52.2 µM | [3] 10.8 µM | [4] > 100 µM | [5] 8.87 µM | [6] > 54.6 µM | [7] 13.6 µM | [8] 15.7 µM | [9] 10.6 µM | [10] 21 µM | [11] 5.94 µM | [12] 9.33 µM | [13] > 90.6 µM | [14] 12.9 µM | [15] 27 µM | [16] > 100 µM | [17] 26.9 µM

Cc1cc2c(cc1Br)C1(C)CCC(C)C1(C)O2 (configuration not stated)
inactive: [1] 16.3 µM | [2] 55.6 µM | [3] 43 µM | [4] 13.4 µM | [5] 30.1 µM | [6] 31.6 µM | [7] 32.3 µM | [8] 16.9 µM | [9] 19.8 µM | [10] 23.7 µM | [11] 21.7 µM | [12] 39.8 µM | [13] 23.8 µM | [14] 18.6 µM | [15] 29.1 µM | [16] 13 µM | [17] 40.1 µM

O=C1c2ccoc2C(=O)c2oc(=O)ccc21
inactive: [1] > 41.2 µM | [2] 20.8 µM | [3] > 45.3 µM | [4] 2.32 µM | [5] 21.6 µM | [6] > 42 µM | [7] 7.82 µM | [8] 3.16 µM | [9] > 42.6 µM | [10] 18.7 µM | [11] 3.36 µM | [12] 5.13 µM | [13] 19.7 µM | [14] 6.59 µM | [15] 1.7 µM | [16] 1.43 µM | [17] 4.23 µM

N#CC1(C#N)C2(c3ccccc3)OC(c3ccccc3)(c3cc4ccccc4cc32)C1(C#N)C#N
inactive: [1] 6.17 µM | [18] 14.5 µM | [2] 16.6 µM | [3] 18.5 µM | [4] 2.37 µM | [5] 3.47 µM | [6] 7.85 µM | [7] 10.6 µM | [19] 5.38 µM | [8] 18.1 µM | [9] 12.6 µM | [10] 18 µM | [11] 13.9 µM | [12] 11.4 µM | [13] 15.8 µM | [20] 17.1 µM | [14] 19.4 µM | [15] 14.3 µM | [16] 33.3 µM | [17] 2.62 µM

COc1cc2c(cc1OC)C(Cl)C(c1ccc(Br)cc1)=C2Cl (configuration not stated)
inactive: [1] 14.4 µM | [18] 11.3 µM | [2] 10.6 µM | [3] 13.3 µM | [4] 5.46 µM | [5] 20.9 µM | [6] 16.3 µM | [7] 11.2 µM | [19] 7.21 µM | [8] 15 µM | [9] 11.3 µM | [10] 8.32 µM | [11] 9.84 µM | [12] 13.8 µM | [13] 15.4 µM | [20] 7.82 µM | [14] 9.08 µM | [15] 14.4 µM | [16] 2.62 µM | [17] 9.51 µM

CCCCCCC(=O)C/C(CCC(=O)N(Cc1ccccc1)Cc1ccccc1)=N\Nc1ccc([N+](=O)[O-])cc1[N+](=O)[O-]
inactive: [1] 41.1 µM | [2] 29.1 µM | [3] 73.6 µM | [4] 32.2 µM | [5] 55.1 µM | [6] 46 µM | [7] 57.8 µM | [8] > 100 µM | [9] > 100 µM | [10] 71.1 µM | [11] 35.4 µM | [12] 40.1 µM | [13] > 100 µM | [14] 83.4 µM | [15] 55.5 µM | [16] > 10 µM | [17] 55.6 µM

COC(=O)c1cc(O)ccc1NC(=O)c1ccc(O)cc1
inactive: [1] > 100 µM | [2] > 100 µM | [3] > 100 µM | [4] > 100 µM | [5] > 100 µM | [6] > 100 µM | [7] > 100 µM | [8] > 100 µM | [9] > 100 µM | [10] > 100 µM | [11] > 100 µM | [12] > 100 µM | [13] > 100 µM | [14] > 100 µM | [15] > 100 µM | [16] > 100 µM | [17] > 100 µM

COc1cc(Cn2c(=S)ss/c2=N\C(=S)N(C)C)cc(OC)c1OC
inactive: [1] 9.33 µM | [18] > 28.5 µM | [2] > 81.5 µM | [3] 49.1 µM | [4] 2.05 µM | [5] > 92 µM | [6] 2.64 µM | [7] 4.73 µM | [19] 3.64 µM | [8] 3.21 µM | [9] 24.3 µM | [10] 4.16 µM | [11] 1.89 µM | [12] 48.4 µM | [13] > 68.9 µM | [20] 3.35 µM | [14] 4.46 µM | [15] 2.26 µM | [16] 3.42 µM | [17] 2.81 µM
